According to patent US8138197B2, “Spirochromanon derivatives” (MSD K.K., priority 2007, dated 2012):

What was measured:
human ACC1 = human ACC1 (Homo sapiens, UniProt Q13085); test: Acetyl CoA carboxylase (ACC) activity inhibition test, human ACC1; type: biochemical; conditions: 1 μmol/liter compound; [14C] bicarbonate fixation, 37° C., 40 minutes; read-out: Inhibition (%) by 1 μmol/liter Chemical, human ACC1
Description: (§1) A. Pharmacological Test Example (Acetyl CoA Carboxylase (ACC) Activity Inhibition Test)
(§2) A test compound is dissolved in dimethyl sulfoxide (DMSO) to a concentration of 10 mM and then diluted with DMSO to give a 100-fold concentrated solution of the compound compared with target assay concentration. The ACC enzyme activity inhibition test is carried out according to a modification of Thampy & Wakil's method (J. Biol. Chem., Vol. 260, pp. 6318-6323 (1985)). Concretely, 0.8 μl of the diluted test compound is added to each well of 96-well assay plate (Perkin Elmer Opti Plate), then 40 μl of a substrate solution (50 mM Hepes sodium (pH 7.5), 2 mM DTT, 10 mM ATP, 500 μM acetyl CoA, 0.17 mM NaH[^14C]O3 (58 mCi/mmol, by Amersham), 8 mM NaHCO3) is added to each well, and 40 μL of an enzyme solution ([…] human ACC1 or human ACC2, 50 mM Hepes sodium (pH 7.5), 2 mM DTT, 40 mM MgCl2, 40 mM tripotassium citrate 1 mg/ml fetal bovine serum albumin) is added thereto. Then, the upper side of the plate is sealed up, and the plate is incubated with gently stirring at 37° C. for 40 minutes. Next, 20 μl of 1 N HCl is added to each well to stop the enzyme reaction, and the assay plate is stirred overnight to remove the unreacted NaH[^14C]O3. Next, 100 μl of a scintillator (Perkin Elmer's Microscinti 40) is added to each well and the plate is stirred, then the radioactivity of the fixed [^14C] is counted using a microplate scintillation counter (Perkin Elmer's Topcount), the radioactivity of which represents the enzyme activity in each well. The human ACC1 and human ACC2 enzyme-inhibition activities of the test compounds are calculated, based on the radioactivity of the well added by DMSO without test compound as a control.

human ACC2 = human ACC2 (Homo sapiens, UniProt O00763); test: Acetyl CoA carboxylase (ACC) activity inhibition test, human ACC2; type: biochemical; conditions: 1 μmol/liter compound; [14C] bicarbonate fixation, 37° C., 40 minutes; read-out: Inhibition (%) by 1 μmol/liter Chemical, human ACC2
Sequence of human ACC2 (O00763 whole entry): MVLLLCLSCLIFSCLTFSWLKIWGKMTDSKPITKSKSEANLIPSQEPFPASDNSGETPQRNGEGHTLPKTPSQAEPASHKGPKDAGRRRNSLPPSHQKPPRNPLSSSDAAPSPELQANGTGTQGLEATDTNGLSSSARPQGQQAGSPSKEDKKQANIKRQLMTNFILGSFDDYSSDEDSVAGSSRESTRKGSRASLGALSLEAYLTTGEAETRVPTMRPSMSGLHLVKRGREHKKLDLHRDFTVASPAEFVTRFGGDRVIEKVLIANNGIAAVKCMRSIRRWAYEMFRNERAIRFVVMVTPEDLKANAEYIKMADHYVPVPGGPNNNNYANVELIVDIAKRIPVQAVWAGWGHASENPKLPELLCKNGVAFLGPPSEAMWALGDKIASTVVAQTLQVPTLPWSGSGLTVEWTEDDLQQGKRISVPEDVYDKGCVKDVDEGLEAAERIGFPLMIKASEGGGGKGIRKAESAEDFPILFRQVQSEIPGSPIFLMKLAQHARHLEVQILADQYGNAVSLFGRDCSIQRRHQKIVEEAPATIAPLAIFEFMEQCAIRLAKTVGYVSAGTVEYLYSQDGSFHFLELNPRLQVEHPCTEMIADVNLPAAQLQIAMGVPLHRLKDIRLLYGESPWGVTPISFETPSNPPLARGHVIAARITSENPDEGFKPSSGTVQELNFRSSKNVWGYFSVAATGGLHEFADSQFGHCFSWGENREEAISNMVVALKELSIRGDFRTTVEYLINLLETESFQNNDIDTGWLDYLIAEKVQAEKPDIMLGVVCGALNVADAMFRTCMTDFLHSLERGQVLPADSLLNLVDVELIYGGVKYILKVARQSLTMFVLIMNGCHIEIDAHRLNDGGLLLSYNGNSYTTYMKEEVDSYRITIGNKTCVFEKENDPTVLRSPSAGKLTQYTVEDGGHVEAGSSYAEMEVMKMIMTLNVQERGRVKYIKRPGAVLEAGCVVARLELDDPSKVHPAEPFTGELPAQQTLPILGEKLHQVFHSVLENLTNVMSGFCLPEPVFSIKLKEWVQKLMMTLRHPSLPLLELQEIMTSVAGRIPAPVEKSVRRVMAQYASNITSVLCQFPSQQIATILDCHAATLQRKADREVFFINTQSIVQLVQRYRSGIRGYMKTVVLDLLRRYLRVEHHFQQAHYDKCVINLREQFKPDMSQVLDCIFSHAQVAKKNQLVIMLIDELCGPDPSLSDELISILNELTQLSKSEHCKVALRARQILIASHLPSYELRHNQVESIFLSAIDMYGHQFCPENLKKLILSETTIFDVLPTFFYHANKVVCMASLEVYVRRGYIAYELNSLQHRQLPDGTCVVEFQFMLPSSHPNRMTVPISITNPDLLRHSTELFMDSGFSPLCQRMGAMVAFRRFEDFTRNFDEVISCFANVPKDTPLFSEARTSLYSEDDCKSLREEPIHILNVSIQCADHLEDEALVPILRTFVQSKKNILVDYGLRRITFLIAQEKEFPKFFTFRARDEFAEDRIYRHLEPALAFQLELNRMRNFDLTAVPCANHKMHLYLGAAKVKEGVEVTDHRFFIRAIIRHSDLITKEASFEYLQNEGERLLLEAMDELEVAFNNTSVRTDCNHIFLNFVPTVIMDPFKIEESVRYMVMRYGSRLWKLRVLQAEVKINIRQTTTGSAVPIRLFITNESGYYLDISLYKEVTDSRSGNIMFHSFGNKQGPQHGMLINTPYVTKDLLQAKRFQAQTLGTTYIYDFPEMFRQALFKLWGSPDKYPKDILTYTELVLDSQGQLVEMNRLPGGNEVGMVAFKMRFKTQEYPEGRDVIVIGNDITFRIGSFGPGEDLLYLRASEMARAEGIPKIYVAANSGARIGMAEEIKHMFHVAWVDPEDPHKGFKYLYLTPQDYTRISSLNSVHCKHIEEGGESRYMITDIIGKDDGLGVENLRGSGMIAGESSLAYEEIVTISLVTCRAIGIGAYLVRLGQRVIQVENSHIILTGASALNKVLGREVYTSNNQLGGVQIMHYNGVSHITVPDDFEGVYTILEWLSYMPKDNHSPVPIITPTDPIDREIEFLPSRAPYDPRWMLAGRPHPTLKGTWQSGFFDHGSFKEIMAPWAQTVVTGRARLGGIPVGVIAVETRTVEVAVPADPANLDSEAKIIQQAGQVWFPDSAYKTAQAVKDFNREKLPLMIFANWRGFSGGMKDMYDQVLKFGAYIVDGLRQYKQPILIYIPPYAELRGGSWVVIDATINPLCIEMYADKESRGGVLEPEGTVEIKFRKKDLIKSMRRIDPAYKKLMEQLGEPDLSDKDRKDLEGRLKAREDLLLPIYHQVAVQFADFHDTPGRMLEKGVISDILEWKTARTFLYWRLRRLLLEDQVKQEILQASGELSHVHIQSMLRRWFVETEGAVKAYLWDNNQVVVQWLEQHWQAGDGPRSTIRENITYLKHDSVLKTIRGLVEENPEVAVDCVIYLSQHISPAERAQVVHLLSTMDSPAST
Description: as §1, §2

inhibition at 1 µM (human ACC1) [%] | inhibition at 1 µM (human ACC2) [%] | SMILES
99 | 99 | CCOc1cc(C(=O)N2CCC3(CC2)CC(=O)c2cc(-c4ccc(C(N)=O)cn4)ccc2O3)cc(OC)c1-c1cnn(C)c1 [Example 77, 6-{1′-[3-ethoxy-5-methoxy-4-(1-methyl-1H-pyrazol-4-yl)benzoyl]-4-oxospiro[chroman-2,4′-piperidin]-6-yl}nicotinamide]
100 | 99 | CCOc1cc(C(=O)N2CCC3(CC2)CC(=O)c2cc(-c4ccnc(C(=O)O)c4)ccc2O3)cc(OCC)c1-c1cnn(C)c1 [Example 37, 4-(1′-{[3,5-Diethoxy-4-(1-methyl-1H-pyrazol-4-yl)phenyl]carbonyl}-4-oxospiro[chroman-2,4′-piperidin]-6-yl)pyridine-2-carboxylic acid]
100 | 99 | CCOc1cc(C(=O)N2CCC3(CC2)CC(=O)c2cc(-c4cncc(C(=O)O)c4)ccc2O3)cc(OCC)c1-c1cnn(C)c1 [Example 25, 5-(1′-{[3,5-Diethoxy-4-(1-methyl-1H-pyrazol-4-yl)phenyl]carbonyl}-4-oxospiro[chroman-2,4′-piperidin]-6-yl)pyridine-3-carboxylic acid]
100 | 99 | CCOc1cc(C(=O)N2CCC3(CC2)CC(=O)c2cc(-c4nnn[nH]4)ccc2O3)cc(OCC)c1-c1cnn(C)c1 [Example 12, 1′-{[3,5-Diethoxy-4-(1-methyl-1H-pyrazol-4-yl)phenyl]carbonyl}-6-(tetrazol-5-yl)spiro[chroman-2,4′-piperidin]-4-one]
98 | 89 | Cc1nn(-c2ccccn2)c2sc(C(=O)N3CCC4(CC3)CC(=O)c3cc(-c5nnn[nH]5)ccc3O4)cc12 [Example 51, 1′-[(3-Methyl-1-pyridin-2-yl-1H-thieno[2,3-c]pyrazol-5-yl)carbonyl]-6-(tetrazol-5-yl)spiro[chroman-2,4′-piperidin]-4-one]
99 | 99 | CCOc1cc(C(=O)N2CCC3(CC2)CC(=O)c2cc(-c4cnn(C)c4)ccc2O3)cc(OC)c1-c1cnn(C)c1 [Example 79, 1′-[3-Ethoxy-5-methoxy-4-(1-methyl-1H-pyrazol-4-yl)benzoyl]-6-(1-methyl-1H-pyrazol-4-yl)spiro[chroman-2,4′-piperidin]4-one]
99 | 99 | CCOc1cc(C(=O)N2CCC3(CC2)CC(=O)c2cc(-c4ccc(C(=O)O)cn4)ccc2O3)cc(OCC)c1-c1cnn(C)c1 [Example 71, Sodium 6-{1′-[3,5-diethoxy-4-(1-methyl-1H-pyrazol-4-yl)benzoyl]-4-oxospiro[chroman-2,4′-piperidin]-6-yl}nicotinate]
99 | 98 | Cn1nc(-c2ccccc2)c2ccc(C(=O)N3CCC4(CC3)CC(=O)c3cc(-c5nnn[nH]5)ccc3O4)cc21 [Example 56, 1′-[(1-Methyl-3-phenyl-1H-indazol-6-yl)carbonyl]-6-(tetrazol-5-yl)spiro[chroman-2,4′-piperidin]-4-one]
94 | 97 | COc1cc(C(=O)N2CCC3(CC2)CC(=O)c2cc(-c4nnn[nH]4)ccc2O3)cc(OC)c1-c1ccccc1 [Example 5]
98 | 99 | Cn1cc(-c2ccc3c(c2)C(=O)CC2(CCN(C(=O)c4cc(-c5nnn[nH]5)c5ccn(C6CC6)c5c4)CC2)O3)cn1 [Example 42, 1′-{[1-Cyclopropyl-4-(tetrazol-5-yl)-1H-indol-6-yl]carbonyl}-6-(1-methyl-1H-pyrazol-4-yl)spiro[chroman-2,4′-piperidin]-4-one]
93 | 97 | CCOc1cc(C(=O)N2CCC3(CC2)CC(=O)c2cc(-c4nnn(COC(=O)C(C)(C)C)n4)ccc2O3)cc(OC)c1-c1cnn(C)c1 [Example 63, (5-{1′-[3-ethoxy-5-methoxy-4-(1-methyl-1H-pyrazol-4-yl)benzoyl]-4-oxospiro[chroman-2,4′-piperidin]-6-yl}-2H-tetrazol-2-yl)methylpivalate]
99 | 99 | COc1cc(C(=O)N2CCC3(CC2)CC(=O)c2cc(-c4ccc(C(N)=O)cn4)ccc2O3)cc(OC)c1-c1cnn(C)c1 [Example 68, 6-{1′-[3,5-dimethoxy-4-(1-methyl-1H-pyrazol-4-yl)benzoyl]-4-oxospiro[chroman-2,4′-piperidin]-6-yl}nicotinamide]
99 | 99 | CCOc1cc(C(=O)N2CCC3(CC2)CC(=O)c2cc(-c4nnn[nH]4)ccc2O3)cc(OC)c1-c1cnn(C)c1 [Example 29, 1′-{[3-Ethoxy-5-methoxy-4-(1-methyl-1H-pyrazol-4-yl)phenyl]carbonyl}-6-(tetrazol-5-yl)spiro[chroman-2,4′-piperidin]-4-one]
